{
  "source": "patent US8192962B2",
  "about": "“Processes for detecting toxic substances” (Daikin Industries, Ltd., priority 2001, dated 2012)",
  "tested_on": "Mitochondria-located protein genes",
  "assay": "DNA chip mRNA expression in yeast, mitochondria-located protein genes (Table 2)",
  "format": "cell-based, Saccharomyces cerevisiae S288C",
  "conditions": "cells incubated two hours with the chemical substance",
  "how_it_was_run": "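Untreated cultures served as reference for log-phase S288C yeast given a growth-inhibiting, non-lethal toxicant dose for 2 h at 25° C. in YPD. Gene expression was measured on a whole-genome DNA chip from Cy3/Cy5-labeled cDNA.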",
  "data": [
    {"substance": "Na2As [(1)]", "values": [
      {"measurement": "The level of expressed mRNA in the presence of chemical substance/The level of expressed mRNA in the absence of chemical substance", "setting": "yeast gene YJR121W", "value": 0.9},
      {"measurement": "The level of expressed mRNA in the presence of chemical substance/The level of expressed mRNA in the absence of chemical substance", "setting": "yeast gene YKL003C", "value": 1.1},
      {"measurement": "The level of expressed mRNA in the presence of chemical substance/The level of expressed mRNA in the absence of chemical substance", "setting": "yeast gene YKL016C", "value": 1.5},
      {"measurement": "The level of expressed mRNA in the presence of chemical substance/The level of expressed mRNA in the absence of chemical substance", "setting": "yeast gene YKL141W", "value": 1.6},
      {"measurement": "The level of expressed mRNA in the presence of chemical substance/The level of expressed mRNA in the absence of chemical substance", "setting": "yeast gene YKL142W", "value": 1.8},
      {"measurement": "The level of expressed mRNA in the presence of chemical substance/The level of expressed mRNA in the absence of chemical substance", "setting": "yeast gene YKL148C", "value": 0.9},
      {"measurement": "The level of expressed mRNA in the presence of chemical substance/The level of expressed mRNA in the absence of chemical substance", "setting": "yeast gene YKL170W", "value": 1.0},
      {"measurement": "The level of expressed mRNA in the presence of chemical substance/The level of expressed mRNA in the absence of chemical substance", "setting": "yeast gene YKL194C", "value": 0.9},
      {"measurement": "The level of expressed mRNA in the presence of chemical substance/The level of expressed mRNA in the absence of chemical substance", "setting": "yeast gene YKR066C", "value": 0.9},
      {"measurement": "The level of expressed mRNA in the presence of chemical substance/The level of expressed mRNA in the absence of chemical substance", "setting": "yeast gene YLL041C", "value": 1.1},
      {"measurement": "The level of expressed mRNA in the presence of chemical substance/The level of expressed mRNA in the absence of chemical substance", "setting": "yeast gene YLR038C", "value": 2.3},
      {"measurement": "The level of expressed mRNA in the presence of chemical substance/The level of expressed mRNA in the absence of chemical substance", "setting": "yeast gene YLR259C", "value": 0.7},
      {"measurement": "The level of expressed mRNA in the presence of chemical substance/The level of expressed mRNA in the absence of chemical substance", "setting": "yeast gene YLR295C", "value": 1.4},
      {"measurement": "The level of expressed mRNA in the presence of chemical substance/The level of expressed mRNA in the absence of chemical substance", "setting": "yeast gene YLR304C", "value": 0.7},
      {"measurement": "The level of expressed mRNA in the presence of chemical substance/The level of expressed mRNA in the absence of chemical substance", "setting": "yeast gene YLR348C", "value": 1.1},
      {"measurement": "The level of expressed mRNA in the presence of chemical substance/The level of expressed mRNA in the absence of chemical substance", "setting": "yeast gene YLR395C", "value": 1.8},
      {"measurement": "The level of expressed mRNA in the presence of chemical substance/The level of expressed mRNA in the absence of chemical substance", "setting": "yeast gene YML054C", "value": 1.5},
      {"measurement": "The level of expressed mRNA in the presence of chemical substance/The level of expressed mRNA in the absence of chemical substance", "setting": "yeast gene YML120C", "value": 1.1},
      {"measurement": "The level of expressed mRNA in the presence of chemical substance/The level of expressed mRNA in the absence of chemical substance", "setting": "yeast gene YML129C", "value": 1.1},
      {"measurement": "The level of expressed mRNA in the presence of chemical substance/The level of expressed mRNA in the absence of chemical substance", "setting": "yeast gene YMR023C", "value": 1.4},
      {"measurement": "The level of expressed mRNA in the presence of chemical substance/The level of expressed mRNA in the absence of chemical substance", "setting": "yeast gene YMR035W", "value": 1.2},
      {"measurement": "The level of expressed mRNA in the presence of chemical substance/The level of expressed mRNA in the absence of chemical substance", "setting": "yeast gene YMR083W", "value": 1.4},
      {"measurement": "The level of expressed mRNA in the presence of chemical substance/The level of expressed mRNA in the absence of chemical substance", "setting": "yeast gene YMR089C", "value": 0.8},
      {"measurement": "The level of expressed mRNA in the presence of chemical substance/The level of expressed mRNA in the absence of chemical substance", "setting": "yeast gene YMR152W", "value": 0.9},
      {"measurement": "The level of expressed mRNA in the presence of chemical substance/The level of expressed mRNA in the absence of chemical substance", "setting": "yeast gene YMR203W", "value": 0.8},
      {"measurement": "The level of expressed mRNA in the presence of chemical substance/The level of expressed mRNA in the absence of chemical substance", "setting": "yeast gene YMR267W", "value": 0.8},
      {"measurement": "The level of expressed mRNA in the presence of chemical substance/The level of expressed mRNA in the absence of chemical substance", "setting": "yeast gene YNL055C", "value": 1.1},
      {"measurement": "The level of expressed mRNA in the presence of chemical substance/The level of expressed mRNA in the absence of chemical substance", "setting": "yeast gene YNL071W", "value": 0.9},
      {"measurement": "The level of expressed mRNA in the presence of chemical substance/The level of expressed mRNA in the absence of chemical substance", "setting": "yeast gene YNL073W", "value": 0.8},
      {"measurement": "The level of expressed mRNA in the presence of chemical substance/The level of expressed mRNA in the absence of chemical substance", "setting": "yeast gene YNL104C", "value": 1.1},
      {"measurement": "The level of expressed mRNA in the presence of chemical substance/The level of expressed mRNA in the absence of chemical substance", "setting": "yeast gene YNL256W", "value": 0.7},
      {"measurement": "The level of expressed mRNA in the presence of chemical substance/The level of expressed mRNA in the absence of chemical substance", "setting": "yeast gene YOL096C", "value": 1.1},
      {"measurement": "The level of expressed mRNA in the presence of chemical substance/The level of expressed mRNA in the absence of chemical substance", "setting": "yeast gene YOR020C", "value": 1.4},
      {"measurement": "The level of expressed mRNA in the presence of chemical substance/The level of expressed mRNA in the absence of chemical substance", "setting": "yeast gene YOR037W", "value": 1.0},
      {"measurement": "The level of expressed mRNA in the presence of chemical substance/The level of expressed mRNA in the absence of chemical substance", "setting": "yeast gene YOR100C", "value": 1.3},
      {"measurement": "The level of expressed mRNA in the presence of chemical substance/The level of expressed mRNA in the absence of chemical substance", "setting": "yeast gene YOR130C", "value": 0.8},
      {"measurement": "The level of expressed mRNA in the presence of chemical substance/The level of expressed mRNA in the absence of chemical substance", "setting": "yeast gene YOR142W", "value": 1.0},
      {"measurement": "The level of expressed mRNA in the presence of chemical substance/The level of expressed mRNA in the absence of chemical substance", "setting": "yeast gene YOR150W", "value": 1.7},
      {"measurement": "The level of expressed mRNA in the presence of chemical substance/The level of expressed mRNA in the absence of chemical substance", "setting": "yeast gene YOR176W", "value": 0.7},
      {"measurement": "The level of expressed mRNA in the presence of chemical substance/The level of expressed mRNA in the absence of chemical substance", "setting": "yeast gene YOR187W", "value": 1.0},
      {"measurement": "The level of expressed mRNA in the presence of chemical substance/The level of expressed mRNA in the absence of chemical substance", "setting": "yeast gene YOR316C", "value": 0.7},
      {"measurement": "The level of expressed mRNA in the presence of chemical substance/The level of expressed mRNA in the absence of chemical substance", "setting": "yeast gene YPL040C", "value": 1.1},
      {"measurement": "The level of expressed mRNA in the presence of chemical substance/The level of expressed mRNA in the absence of chemical substance", "setting": "yeast gene YPL134C", "value": 1.5},
      {"measurement": "The level of expressed mRNA in the presence of chemical substance/The level of expressed mRNA in the absence of chemical substance", "setting": "yeast gene YPL135W", "value": 0.9},
      {"measurement": "The level of expressed mRNA in the presence of chemical substance/The level of expressed mRNA in the absence of chemical substance", "setting": "yeast gene YPL215W", "value": 1.1},
      {"measurement": "The level of expressed mRNA in the presence of chemical substance/The level of expressed mRNA in the absence of chemical substance", "setting": "yeast gene YPL262W", "value": 1.0},
      {"measurement": "The level of expressed mRNA in the presence of chemical substance/The level of expressed mRNA in the absence of chemical substance", "setting": "yeast gene YPR024W", "value": 0.7},
      {"measurement": "The level of expressed mRNA in the presence of chemical substance/The level of expressed mRNA in the absence of chemical substance", "setting": "yeast gene YPR037C", "value": 1.2},
      {"measurement": "The level of expressed mRNA in the presence of chemical substance/The level of expressed mRNA in the absence of chemical substance", "setting": "yeast gene YPR047W", "value": 1.0},
      {"measurement": "The level of expressed mRNA in the presence of chemical substance/The level of expressed mRNA in the absence of chemical substance", "setting": "yeast gene YPR134W", "value": 1.1}
    ]}
  ]
}
